Reference: paper PMC8330742, “New benzothieno[2,3-c]pyridines as non-steroidal CYP17 inhibitors: design, synthesis, anticancer screening, apoptosis induction, and in silico ADME profile studies” (Journal of Enzyme Inhibition and Medicinal Chemistry, 2021)

Tests used:
CCRF-CEM = experiment: NCI-60 SRB screen; assay type: cell-based; details: Homo sapiens, single dose 10^−5 M, read-out: Growth inhibition (%)
HL-60(TB) = experiment: NCI-60 SRB screen; assay type: cell-based, human; details: Homo sapiens; HL-60 (TB); single dose 10^−5 M; read-out: Growth inhibition (%)
K-562 = experiment: NCI-60 SRB screen; assay type: cell-based, human; details: Homo sapiens, K562; K-562; single dose 10^−5 M; read-out: Growth inhibition (%)
MOLT-4 = experiment: NCI-60 SRB screen; assay type: cell-based; details: Homo sapiens; MOLT-4; single dose 10^−5 M; read-out: Growth inhibition (%)
SR = experiment: NCI-60 SRB screen; assay type: cell-based; details: Homo sapiens, single dose 10^−5 M, read-out: Growth inhibition (%)
A549/ATCC = experiment: NCI-60 SRB screen; assay type: cell-based, human; details: Homo sapiens, single dose 10^−5 M, read-out: Growth inhibition (%)
EKVX = experiment: NCI-60 SRB screen; assay type: cell-based, human; details: Homo sapiens, single dose 10^−5 M, read-out: Growth inhibition (%)
HOP-62 = experiment: NCI-60 SRB screen; assay type: cell-based, human; details: Homo sapiens; HOP-62; single dose 10^−5 M; read-out: Growth inhibition (%)
HOP-92 = experiment: NCI-60 SRB screen; assay type: cell-based, human; details: Homo sapiens; HOP-92; single dose 10^−5 M; read-out: Growth inhibition (%)
NCI-H226 = experiment: NCI-60 SRB screen; assay type: cell-based, human; details: Homo sapiens; NCI-H226; single dose 10^−5 M; read-out: Growth inhibition (%)
NCI-H23 = experiment: NCI-60 SRB screen; assay type: cell-based, human; details: Homo sapiens; NCI-H23; single dose 10^−5 M; read-out: Growth inhibition (%)
NCI-H322M = experiment: NCI-60 SRB screen; assay type: cell-based, human; details: Homo sapiens, single dose 10^−5 M, read-out: Growth inhibition (%)
NCI-H460 = experiment: NCI-60 SRB screen; assay type: cell-based, human; details: Homo sapiens; NCI-H460; single dose 10^−5 M; read-out: Growth inhibition (%)
NCI-H522 = experiment: NCI-60 SRB screen; assay type: cell-based, human; details: Homo sapiens; NCI-H522; single dose 10^−5 M; read-out: Growth inhibition (%)
COLO 205 = experiment: NCI-60 SRB screen; assay type: cell-based, human; details: Homo sapiens; COLO 205; single dose 10^−5 M; read-out: Growth inhibition (%)
HCT-116 = experiment: NCI-60 SRB screen; assay type: cell-based, human; details: Homo sapiens; HCT-116; single dose 10^−5 M; read-out: Growth inhibition (%)
HCT-15 = experiment: NCI-60 SRB screen; assay type: cell-based, human; details: Homo sapiens; HCT-15; single dose 10^−5 M; read-out: Growth inhibition (%)
HT-29 = experiment: NCI-60 SRB screen; assay type: cell-based; details: Homo sapiens; HT-29; single dose 10^−5 M; read-out: Growth inhibition (%)
KM12 = experiment: NCI-60 SRB screen; assay type: cell-based, human; details: Homo sapiens; KM12; single dose 10^−5 M; read-out: Growth inhibition (%)
SW-620 = experiment: NCI-60 SRB screen; assay type: cell-based; details: Homo sapiens; SW-620; single dose 10^−5 M; read-out: Growth inhibition (%)
SF-268 = experiment: NCI-60 SRB screen; assay type: cell-based, human; details: Homo sapiens; SF-268; single dose 10^−5 M; read-out: Growth inhibition (%)
SF-295 = experiment: NCI-60 SRB screen; assay type: cell-based, human; details: Homo sapiens; SF-295; single dose 10^−5 M; read-out: Growth inhibition (%)
MALME-3M = experiment: NCI-60 SRB screen; assay type: cell-based, human; details: Homo sapiens, single dose 10^−5 M, read-out: Growth inhibition (%)
M14 = experiment: NCI-60 SRB screen; assay type: cell-based, human; details: Homo sapiens; M14; single dose 10^−5 M; read-out: Growth inhibition (%)
MDA-MB-435 = experiment: NCI-60 SRB screen; assay type: cell-based; details: Homo sapiens, MDA-MB-435, read-out: Growth inhibition (%)
SK-MEL-2 = experiment: NCI-60 SRB screen; assay type: cell-based, human; details: Homo sapiens; SK-MEL-2; single dose 10^−5 M; read-out: Growth inhibition (%)
SK-MEL-28 = experiment: NCI-60 SRB screen; assay type: cell-based; details: Homo sapiens; SK-MEL-28; single dose 10^−5 M; read-out: Growth inhibition (%)
SK-MEL-5 = experiment: NCI-60 SRB screen; assay type: cell-based, human; details: Homo sapiens; SK-MEL-5; single dose 10^−5 M; read-out: Growth inhibition (%)
UACC-257 = experiment: NCI-60 SRB screen; assay type: cell-based, human; details: Homo sapiens, UACC-257; UACC-275 (so in the source); single dose 10^−5 M; read-out: Growth inhibition (%)
UACC-62 = experiment: NCI-60 SRB screen; assay type: cell-based, human; details: Homo sapiens; UACC-62; single dose 10^−5 M; read-out: Growth inhibition (%)
IGROV1 = experiment: NCI-60 SRB screen; assay type: cell-based, human; details: Homo sapiens, IGROV-1; IGROV1; single dose 10^−5 M; read-out: Growth inhibition (%)
OVCAR-3 = experiment: NCI-60 SRB screen; assay type: cell-based, human; details: Homo sapiens; OVCAR-3; single dose 10^−5 M; read-out: Growth inhibition (%)
OVCAR-4 = experiment: NCI-60 SRB screen; assay type: cell-based, human; details: Homo sapiens; OVCAR-4; single dose 10^−5 M; read-out: Growth inhibition (%)
OVCAR-8 = experiment: NCI-60 SRB screen; assay type: cell-based, human; details: Homo sapiens; OVCAR-8; single dose 10^−5 M; read-out: Growth inhibition (%)
NCI/ADR-RES = experiment: NCI-60 SRB screen; assay type: cell-based, human; details: Homo sapiens, single dose 10^−5 M, read-out: Growth inhibition (%)
SK-OV-3 = experiment: NCI-60 SRB screen; assay type: cell-based, human; details: Homo sapiens; SK-OV-3; single dose 10^−5 M; read-out: Growth inhibition (%)
786-0 = experiment: NCI-60 SRB screen; assay type: cell-based; details: Homo sapiens; 786-0; single dose 10^−5 M; read-out: Growth inhibition (%)
ACHN = experiment: NCI-60 SRB screen; assay type: cell-based; details: Homo sapiens, single dose 10^−5 M, read-out: Growth inhibition (%)
CAKI-1 = experiment: NCI-60 SRB screen; assay type: cell-based, human; details: Homo sapiens; CAKI-1; single dose 10^−5 M; read-out: Growth inhibition (%)
RXF 393 = experiment: NCI-60 SRB screen; assay type: cell-based, human; details: Homo sapiens; RXF 393; single dose 10^−5 M; read-out: Growth inhibition (%)
SN12C = experiment: NCI-60 SRB screen; assay type: cell-based, human; details: Homo sapiens, SN12C; SN 12 C; single dose 10^−5 M; read-out: Growth inhibition (%)
TK-10 = experiment: NCI-60 SRB screen; assay type: cell-based, human; details: Homo sapiens; TK-10; single dose 10^−5 M; read-out: Growth inhibition (%)
UO-31 = experiment: NCI-60 SRB screen; assay type: cell-based, human; details: Homo sapiens; UO-31; single dose 10^−5 M; read-out: Growth inhibition (%)
[1] = system: panel of 60 cancer cell lines; experiment: NCI-60 SRB screen, mean or range over the panel; assay type: cell-based, human; details: Homo sapiens; mean over the cell lines; single dose 10^−5 M; read-out: Mean growth inhibition (%)

SMILES: COc1ccc(C=C2Sc3c(F)cccc3C2=O)c(OC)c1 [Compound 2a, 2-(2,4-Dimethoxybenzylidene)-7-fluoro[1]benzothiophen-3(2H)-one]
- inhibition at 10 µM (CCRF-CEM): -5.14%
- inhibition at 10 µM (HL-60(TB)): 11%
- inhibition at 10 µM (K-562): 4.76%
- inhibition at 10 µM (MOLT-4): 4.1%
- inhibition at 10 µM (SR): 6.3%
- inhibition at 10 µM (A549/ATCC): -7.82%
- inhibition at 10 µM (EKVX): -5.71%
- inhibition at 10 µM (HOP-62): 5.99%
- inhibition at 10 µM (HOP-92): -8.14%
- inhibition at 10 µM (NCI-H226): 0.31%
- inhibition at 10 µM (NCI-H23): -4.04%
- inhibition at 10 µM (NCI-H322M): 0.25%
- inhibition at 10 µM (NCI-H460): -6.08%
- inhibition at 10 µM (NCI-H522): 6.14%
- inhibition at 10 µM (COLO 205): -16%
- inhibition at 10 µM (HCT-116): -3.66%
- inhibition at 10 µM (HCT-15): -9.73%
- inhibition at 10 µM (HT-29): -9.18%
- inhibition at 10 µM (KM12): -5.55%
- inhibition at 10 µM (SW-620): -4.67%
- inhibition at 10 µM (SF-268): 4.51%
- inhibition at 10 µM (SF-295): -4.69%
- inhibition at 10 µM (MALME-3M): 4.19%
- inhibition at 10 µM (M14): -5.61%
- inhibition at 10 µM (MDA-MB-435): -0.27%
- inhibition at 10 µM (SK-MEL-2): -17.9%
- inhibition at 10 µM (SK-MEL-28): -7.93%
- inhibition at 10 µM (SK-MEL-5): -2.91%
- inhibition at 10 µM (UACC-257): -15.2%
- inhibition at 10 µM (UACC-62): 7.33%
- inhibition at 10 µM (IGROV1): 0.46%
- inhibition at 10 µM (OVCAR-3): -7.34%
- inhibition at 10 µM (OVCAR-4): -6.44%
- inhibition at 10 µM (OVCAR-8): -4.32%
- inhibition at 10 µM (NCI/ADR-RES): -3.61%
- inhibition at 10 µM (SK-OV-3): 6.36%
- inhibition at 10 µM (786-0): -12.2%
- inhibition at 10 µM (ACHN): -4.06%
- inhibition at 10 µM (CAKI-1): 11.9%
- inhibition at 10 µM (RXF 393): -27.9%
- inhibition at 10 µM (SN12C): -0.73%
- inhibition at 10 µM (TK-10): -34.9%
- inhibition at 10 µM (UO-31): 25%
- inhibition at 10 µM [1]: -3.74%
